For `COc1ccnc(Cc2cnc(NCCSCc3nc[nH]c3C)[nH]c2=O)c1`, the melting point is 128 to 130 °C.

With `COc1cc(=O)c2c([nH]c1=O)CC(Cl)C(Cl)C2` (centres undefined), the melting point lay in the range of 229 to 230 °C.

In turn, `Cc1ccc(-n2nc3c(cc2=O)CCCc2sc(CO)cc2-3)cc1` returned a melting point of 158 to 159 °C.

Take `COc1on(C)c(=O)c1-c1ccccc1COc1ccccc1C`: the melting point was 90 to 92 °C.

In turn, `CCOC(=O)CCCOc1ccc(C(N)=O)cc1` came in with a melting point of 144 to 146 °C.

As for `CS(=O)(=O)Oc1ccc(-n2nc(C#N)cc2-c2ccc(S(C)(=O)=O)cc2)cc1`, the melting point is 195 to 196 °C.

`CCCc1nc2sc3c(NCc4cccnc4)ncnc3c2c2c1COC(C)(C)C2` displayed a melting point of 259 to 260 °C.

Turning to `O=P(O)(O)C(CCCc1ccc(-c2ccccc2)cc1)P(=O)(O)O`, the melting point is 199 to 200 °C.

`Nc1nc(N)nc(-c2ccc(S(=O)c3ccccc3)cc2)n1` (centres undefined) yielded a melting point of 253 to 255 °C.

Regarding `CCc1c(C)sc2ncnc(Cl)c12`, the melting point fell in the range of 52 to 56 °C.

Compound `CCOC(=O)C1=C(COCc2nc(C)cs2)NC(C)=C(C(=O)OC)C1c1ccccc1Cl` (centres undefined) returned a melting point of 107 to 110 °C.

The compound `O=C1CCC(C(=O)N2CCC(Cc3ccccc3)CC2)N1` (centres undefined) displayed a melting point of 160 to 161 °C.

As to `Cn1cc(-c2cc(-c3cnc4ccccc4c3)ccn2)n(-c2ccc(C(C)(C)C(N)=O)cc2)c1=O`, the melting point worked out at 259 °C.

`CC1C(NC(=O)OCc2ccccc2)C(=O)N1OCC(=O)OC(C)(C)C` (centres undefined) returned a melting point of 30 °C.

Take `CC(C)(O)COc1ccc(CCCO)c(Oc2ncc(C(F)(F)F)cc2Cl)c1`: the melting point fell in the range of 81.2 to 82 °C.

Take `CCC(c1ccc(Br)cc1)N(O)C(N)=O` (centres undefined): the melting point lay in the range of 139 to 141 °C.

In the case of `COc1ccc(C(=O)c2ccc(SCc3ccccc3)s2)cc1`, the melting point lay within 103 to 105 °C.

The compound `Fc1cc(CC2(Cc3ccnc(F)c3)c3ccccc3-c3ncccc32)ccn1` gave a melting point of 137 to 140 °C.

Compound `COc1ccc(C=O)c(Cl)c1Cl` displayed a melting point of 112 to 113 °C.

`COc1cc(CN2CCN(C)CC2C2=NCCN2)cc(OC)c1OC` (centres undefined) gave a melting point of 185 to 187 °C.

`CN(C)C(=O)[C@@H]1CS[C@@H](CS)C1`: the melting point is 41.8 to 44.4 °C.

The compound `CCCCc1nc2cccc(CO)c2n1Cc1ccc(-c2ccccc2-c2nnn[nH]2)cc1` displayed a melting point of 152 to 153 °C.

Consider `Cc1cn(C2(C(=O)N(C)C)CCC2)nc1-c1ccccc1`, for which the melting point fell in the range of 87 to 89 °C.

`CC(C)n1c(C(=O)O)c(-c2ccc(F)cc2)c2ccccc2c1=O` displayed a melting point of 128 to 130 °C.

`N#CC(C(=O)NC1CCCCC1)=C1Nc2ccccc2O1` came in with a melting point of 185 to 187 °C.

`Cc1cc(C(N)=O)ncc1C(c1c(F)ccc(F)c1F)S(=O)(=O)CCC(F)F` (centres undefined) came in with a melting point of 192 °C.

For the compound `COc1ccccc1OC1CCN(CCCNC(=O)c2cccc3c(=O)c(C)c(-c4ccccc4)oc23)CC1`, the melting point lay within 154 to 156 °C.

For the compound `FC(F)c1ccc2c(c1)C(Cc1ccncc1)(Cc1ccncc1)c1ccccc1-2`, the melting point was > 300 °C.

In turn, `CCCCc1ccc(-c2[nH]nc3c2C(=O)c2c(NC(C)=O)cccc2-3)cc1` displayed a melting point of 259 °C.

`C=C=CN(C(=O)c1ccco1)c1c(C)cccc1C` had a melting point of 138 to 141 °C.

In turn, `CC(=O)OCC1OC(c2ccc(F)c(Cc3ccc(Br)s3)c2)C(OC(C)=O)C(OC(C)=O)C1OC(C)=O` (centres undefined) had a melting point of 127 to 129 °C.

`Oc1cc2c(-c3ccccc3)csc2c(Cl)c1Cl` registered a melting point of 157 to 159 °C.

In turn, `Cc1c(-c2ccc(NC(=O)OC(C)(C)C)cc2)nc2n1CCc1ccccc1C2OC1CCN(C)CC1` (centres undefined) showed a melting point of 194 °C.

On to `COc1ccc(S(=O)(=O)NCCc2ccc(OCC(=O)O)cc2)cc1`, for which the melting point lay in the range of 82 to 83 °C.

As for `O=C(NO)C(=O)Nc1ccccc1`, the melting point was in the range of 165 to 167 °C.

With `N#Cc1nn(-c2c(Cl)cc(C(F)(F)F)cc2Cl)cc1C(=O)C1CC1`, the melting point was 195 to 197 °C.

On to `CCCN1CCC23c4cccc(OC)c4OC2C2CCC3(C1=O)C(C(=O)OC)C2` (centres undefined), for which the melting point was 126 to 128 °C.

`COc1ccc(CN2C(=O)C3CCCC3=Nc3ccccc32)cc1` (centres undefined) showed a melting point of 128 to 131 °C.

The compound `CCOc1ccccc1C=[N+]([O-])C1CCCC1` registered a melting point of 87.3 °C.

In turn, `Cc1ccc(-c2ccc(C(=O)Nc3ccc4nc(CN5CCCC5)ccc4c3)cc2)cc1` yielded a melting point of 192 to 193 °C.

Compound `Cc1ccccc1N1CCN(CCC2CN(C)C(=O)O2)CC1` (centres undefined) displayed a melting point of 55 to 57 °C.

`Clc1c2c(nc3cn[nH]c13)CCCC2` displayed a melting point of 190 to 193 °C.

`CC1=C(C(=O)OCC2CCCO2)C(c2cccc(Br)c2)C(C(=O)OCC2CCCO2)=C(C)N1` (centres undefined): the melting point lay within 138 to 140 °C.

As to `Fc1cccc(CSc2nnc(-c3ccnc4[nH]ccc34)o2)c1`, the melting point was 190 to 191 °C.

As to `O=C(Nc1csc(Br)n1)C(Cl)(Cl)Cl`, the melting point lay in the range of 77 to 80 °C.

Consider `Cc1cc(C)n(Cc2ccc(Cl)cc2Cl)c1/C=C/C(=O)O`, for which the melting point is 193 to 194 °C.

As for `O=C(C=Cc1ccc(O)cc1)N(CCO)CCO`, the melting point was 148 to 150 °C.

On to `CC(C)(C)OC(=O)N1CCN(c2ccc(OCc3ccccc3)cn2)CC1`, for which the melting point fell in the range of 93 to 94 °C.

`CC1=CC(OC(=O)c2ccc(N)cc2N)C(O)C(C)(C)CC1=O` (centres undefined) returned a melting point of 154 to 156 °C.

Take `O=C(Nc1ccc([N+](=O)[O-])cc1O)Nc1cc(Cl)ccc1O`: the melting point fell in the range of 193 to 194 °C.

In turn, `CCCNc1cc(C(=O)O)cc(S(N)(=O)=O)c1Oc1ccccc1` displayed a melting point of 223 to 224 °C.

`O=C(O)c1ccc(NCC(O)C(O)C(O)C(O)CO)cc1` (centres undefined) gave a melting point of 111 to 112 °C.

`COc1nc2cc([N+](=O)[O-])c(C)c(C(=O)N[C@@H](Cc3ccccc3)C(=O)OC(C)(C)C)c2nc1OC`: the melting point lay within 86 to 88 °C.

In turn, `COC(=O)C1=C(C(F)F)NC(C)=C(C(=O)OC2CCCC2)C1c1cccc([N+](=O)[O-])c1C` (centres undefined) showed a melting point of 154 to 156 °C.

In the case of `COc1ccccc1-c1ccccc1/C=C/C1CC(O)CC(=O)O1` (centres undefined), the melting point is 129 to 131 °C.

The compound `O=c1c2ccccc2ccc2ccc(I)cc12` gave a melting point of 97.5 to 99 °C.

As to `Fc1ccc(-c2ccn(C3CCCNC3)c2-c2ccncc2)cc1` (centres undefined), the melting point fell in the range of 189 to 191 °C.

In the case of `Cc1[nH]c(C(=O)NCCc2ccccn2)c(C)c1-c1nc2ccc(Oc3ccccc3)cc2[nH]1`, the melting point was in the range of 290 to 293 °C.

With `c1coc(Cn2c(NC3CCN(CCNc4nccs4)CC3)nc3ccccc32)c1`, the melting point was 153 °C.

`COC(=O)C1=C(C)NC(C)=C(C(=O)OCCN2CCN(S(=O)(=O)c3ccc(Cl)cc3)CC2)C1c1cccc([N+](=O)[O-])c1` (centres undefined) returned a melting point of 97 to 105 °C.

The compound `O=C(c1ccc(F)cc1)c1cccnc1C(=O)O` showed a melting point of 152 to 153 °C.

As for `O=C(O)c1cc(S(=O)(=O)N2CCCCC2)c(Cl)cc1Cl`, the melting point fell in the range of 200 to 205 °C.

The compound `O=C(O)c1cc([N+](=O)[O-])ccc1NCCc1ccccc1` registered a melting point of 116 to 118 °C.

As for `Cn1c(C(F)(F)F)cc(=O)n(-c2cc(O)c(Br)cc2F)c1=O`, the melting point turned out to be 192 °C.

As usually defined, the melting point is the temperature, or range, at which the solid turns liquid.
